Data as given in patent US20110159088A1, “ORAL PHARMACEUTICAL FOR BASED ON AT LEAST ONE ACTIVE PRINCIPLE WHOSE SOLUBILITY VARIES AS A FUNCTION OF THE GASTRIC pH CONDITIONS” (Flamel Technologies, S.A., priority 2005, published 2011).
≈ marks a conversion by molar mass, not a printed value.

Experiment: physchem
Type: physicochemical
Settings: 37 °C
Procedure: This solubility is measured in an aqueous medium at 37° C., maintained at the pH under consideration. The solubility of Irbesartan varies greatly in the gastric pH range: The solubility of Eprosartan varies greatly in the gastric pH range: The solubility of Acyclovir varies greatly in the gastric pH range: […]

[1] = pH 1.2, simulated gastric fluid

solubility [1] | solubility (pH 2, simulated gastric fluid) | solubility (pH 3, aqueous buffer) | solubility (pH 4.5, aqueous buffer) | solubility (pH 5.5, aqueous buffer) | solubility (pH 6.8, aqueous buffer) | solubility (pH 2.5, aqueous buffer) | Compound
2.42 mg/mL (≈ 5650 µM) | 0.362 mg/mL (≈ 845 µM) | 0.048 mg/mL (≈ 112 µM) | 0.02 mg/mL (≈ 46.7 µM) | 0.065 mg/mL (≈ 152 µM) | 0.666 mg/mL (≈ 1550 µM) | – | CCCCC1=NC2(CCCC2)C(=O)N1Cc1ccc(-c2ccccc2-c2nnn[nH]2)cc1 [Irbesartan]
0.795 mg/mL (≈ 1870 µM) | 0.142 mg/mL (≈ 334 µM) | 0.033 mg/mL (≈ 77.7 µM) | 0.018 mg/mL (≈ 42.4 µM) | 0.015 mg/mL (≈ 35.3 µM) | 1.19 mg/mL (≈ 2810 µM) | – | CCCCc1ncc(/C=C(\Cc2cccs2)C(=O)O)n1Cc1ccc(C(=O)O)cc1 [Eprosartan]
10.5 mg/mL (≈ 46600 µM) | 6 mg/mL (≈ 26600 µM) | – | 2.6 mg/mL (≈ 11500 µM) | – | 2.5 mg/mL (≈ 11100 µM) | 3.3 mg/mL (≈ 14700 µM) | Nc1nc2c(ncn2COCCO)c(=O)[nH]1 [Acyclovir]
